Test results published in publication PMC9226319, “Peripherally restricted transthyretin-based delivery system for probes and therapeutics avoiding opioid-related side effects” (Nature Communications, 2022).
Values joined by “and” are separate entries in the source; they are usually repeats but may differ in a detail not shown here. Identical values can stand only once. Like-named read-outs stand apart in the source and are kept apart here.

What was measured:
[1] = target: holo-RBP-TTR interaction (Homo sapiens, UniProt P02766); assay: Effect on holo-RBP-TTR interaction in human serum (cross-linking, Western blot); details: human serum, quantified from gel image, replicates (Supp Fig.14b)
[2] = for Concentration: subcutaneous 15.9 μmole/kg, individual animals
[3] = target: T1, delta-opioid receptor (human) (Homo sapiens, UniProt P41143); assay: Human delta-opioid receptor (agonist radioligand [3H]-DADLE) binding assay; details: for % Inhibition of Control Specific Binding: delta-opioid receptor binding, replicates 1st/2nd
T1 construct: Eurofins Cerep (France)
T1 sequence (P41143 whole entry): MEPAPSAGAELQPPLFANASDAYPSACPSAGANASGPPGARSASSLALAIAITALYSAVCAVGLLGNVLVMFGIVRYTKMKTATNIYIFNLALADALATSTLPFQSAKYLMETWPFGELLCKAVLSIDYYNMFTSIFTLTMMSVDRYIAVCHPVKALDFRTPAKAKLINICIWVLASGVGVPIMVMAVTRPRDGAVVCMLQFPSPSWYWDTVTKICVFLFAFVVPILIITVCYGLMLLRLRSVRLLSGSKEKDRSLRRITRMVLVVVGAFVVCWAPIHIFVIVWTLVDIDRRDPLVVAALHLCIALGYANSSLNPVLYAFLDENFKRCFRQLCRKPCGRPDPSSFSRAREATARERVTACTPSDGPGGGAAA

[4] = system: male Sprague-Dawley rats; assay: Gastrointestinal (GI) transit (charcoal meal) assays; assay type: in vivo, rat; details: rat, in vivo
[5] = target: T2, kappa opioid receptor (rat) (Rattus norvegicus, UniProt P34975); assay: Rat kappa-opioid receptor (agonist radioligand [3H] U 69593) binding assay; details: for % Inhibition of Control Specific Binding: kappa-opioid receptor binding, replicates 1st/2nd
T2 construct: Eurofins Cerep (France)
T2 sequence (P34975 whole entry): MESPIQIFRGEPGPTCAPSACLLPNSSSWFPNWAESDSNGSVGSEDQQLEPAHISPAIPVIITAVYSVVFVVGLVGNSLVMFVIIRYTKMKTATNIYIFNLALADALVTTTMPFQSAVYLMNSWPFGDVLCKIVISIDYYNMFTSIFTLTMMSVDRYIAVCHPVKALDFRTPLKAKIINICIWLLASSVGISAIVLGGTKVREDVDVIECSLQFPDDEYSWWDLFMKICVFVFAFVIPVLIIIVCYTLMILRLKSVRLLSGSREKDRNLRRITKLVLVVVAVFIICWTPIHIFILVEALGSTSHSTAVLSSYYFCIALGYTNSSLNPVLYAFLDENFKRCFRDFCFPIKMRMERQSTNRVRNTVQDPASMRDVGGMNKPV

[6] = target: human mu-opioid receptors (Homo sapiens, UniProt P35372); assay: biochemical; assay type: binding; details: binding affinity to mu-opioid receptor (Ki)
Chain of human mu-opioid receptors (P35372 whole entry): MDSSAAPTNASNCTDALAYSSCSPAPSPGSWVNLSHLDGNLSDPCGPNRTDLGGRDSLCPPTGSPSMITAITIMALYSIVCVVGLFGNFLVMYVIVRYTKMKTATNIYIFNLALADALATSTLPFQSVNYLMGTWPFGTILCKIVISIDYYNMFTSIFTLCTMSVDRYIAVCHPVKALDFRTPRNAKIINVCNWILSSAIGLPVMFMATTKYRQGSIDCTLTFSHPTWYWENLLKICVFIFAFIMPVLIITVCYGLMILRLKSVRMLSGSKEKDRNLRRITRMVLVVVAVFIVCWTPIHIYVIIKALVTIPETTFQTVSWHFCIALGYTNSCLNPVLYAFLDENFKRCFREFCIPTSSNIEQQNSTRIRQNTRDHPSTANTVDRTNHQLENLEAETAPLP

[7] = in vivo; details: male, Sprague Dawley, rat, sc
[8] = system: male Sprague-Dawley rats; details: rat, in vivo
[9] = target: TTR in human serum (Homo sapiens, UniProt P02766); assay: TTR serum fluorescent probe exclusion (FPE) selectivity assay; assay type: binding; details: ligand 10 µM; for %FPE probe fluorescence: human serum, replicates
[10] = target: purified human TTR (Homo sapiens, UniProt P02766); assay: Fluorescence polarization (FP) binding assay, ligands to TTR in buffer
[11] = in vivo; details: male, Sprague Dawley, rat, sc; remark: listed apart in the source

NC(N)=O [Urea]
%holo RBP binding to TTR [1]: 98.7% and 127% and 74.3%

COc1ccc2c3c1O[C@H]1[C@@H](OCc4cn(CCNCCCCCCOc5cc(OCCCc6c(C)n[nH]c6C)cc(C(=O)O)c5)nn4)CC[C@@]4(O)[C@@H](C2)N(C)CC[C@]314 [AG10-L2-Oxy]
k ([2]; rat, single SC dose 16 µmol/kg): 0.15 ± 0.02 h⁻¹
Concentration ([2]; time 0.03 h): 1980.92 nM and 1419.06 nM and 1694.61 nM
Concentration ([2]; time 0.5 h): 6994.54 nM and 3873.66 nM and 4264.25 nM
Concentration ([2]; time 0.75 h): 6976.39 nM and 5017.1 nM and 7890.95 nM
Concentration ([2]; time 1 h): 6606.43 nM and 5966.57 nM and 8438.91 nM
Concentration ([2]; time 2 h): 5069.67 nM and 5721.19 nM and 8480.16 nM
Concentration ([2]; time 4 h): 2353.83 nM and 3068.56 nM and 2535.48 nM
Concentration ([2]; time 6 h): 732.498 nM and 360.453 nM and 640.073 nM and 668.521 nM
Concentration ([2]; time 8 h): 132.069 nM and 207.97 nM and 223.861 nM
Concentration ([2]; time 12 h): 78.9419 nM and 35.0657 nM and 62.9969 nM and 75.6407 nM
Concentration ([2]; time 24 h): 12.92 nM and 13.41 nM and 14.17 nM
Ki ([3]; [3H]-DADLE displacement, read-out: binding affinity to delta-opioid receptor (Ki)): 410 nM
% Inhibition of Control Specific Binding ([3]; 1.0E-06 M): 50.5% and 49.9%
% Inhibition of Control Specific Binding ([3]; 1.0E-07 M): 14.8% and 19.2%
% Inhibition of Control Specific Binding ([3]; 1.0E-08 M): 1.2% and -2.9%
% Inhibition of Control Specific Binding ([3]; 1.0E-09 M): -6.1% and -3.7%
% Inhibition of Control Specific Binding ([3]; 2.0E-06 M): 65.5% and 63.4%
GI transit (% of vehicle) [4]: 9.5 ± 2.8%
GI transit as % of vehicle group [4]: 9.19% and 12.07% and 6.37% and 7.14% and 12.52%
GI transit (% of vehicle) ([4]; sc): 89.5 ± 3.0%
GI transit as % of vehicle group ([4]; sc): 86.23% and 92.53% and 87.21% and 92.83% and 88.77%
Ki ([5]; [3H] U 69593 displacement, read-out: binding affinity to kappa-opioid receptor (Ki)): 120 nM
% Inhibition of Control Specific Binding ([5]; 1.0E-06 M): 78.6% and 74.5%
% Inhibition of Control Specific Binding ([5]; 1.0E-07 M): 32.2% and 33.7%
% Inhibition of Control Specific Binding ([5]; 1.0E-08 M): 1.0% and 5.5%
% Inhibition of Control Specific Binding ([5]; 1.0E-09 M): -3.9% and 9.9%
% Inhibition of Control Specific Binding ([5]; 2.0E-06 M): 85.0% and 84.1%
Ki [6]: 13 nM
concentration at 0.03 h ([7]; 15.9 μmole/kg, Concentration, subcutaneous 15.9 μmole/kg, time 0.03 h, individual animals): 1340 nM
concentration at 0.5 h ([7]; 15.9 μmole/kg, Concentration, subcutaneous 15.9 μmole/kg, time 0.5 h, individual animals): 4740 nM
concentration at 0.75 h ([7]; 15.9 μmole/kg, Concentration, subcutaneous 15.9 μmole/kg, time 0.75 h, individual animals): 4800 nM
concentration at 1 h ([7]; 15.9 μmole/kg, Concentration, subcutaneous 15.9 μmole/kg, time 1 h, individual animals): 6680 nM
concentration at 2 h ([7]; 15.9 μmole/kg, Concentration, subcutaneous 15.9 μmole/kg, time 2 h, individual animals): 7090 nM
concentration at 4 h ([7]; 15.9 μmole/kg, Concentration, subcutaneous 15.9 μmole/kg, time 4 h, individual animals): 2750 nM
concentration at 8 h ([7]; 15.9 μmole/kg, Concentration, subcutaneous 15.9 μmole/kg, time 8 h, individual animals): 196 nM
concentration at 24 h ([7]; 15.9 μmole/kg, Concentration, subcutaneous 15.9 μmole/kg, time 24 h, individual animals): 18.7 nM
AUC(0-inf) ([7]; 16 umol/kg): 25.8 ± 3.09 µM·h
CL/F ([7]; 16 umol/kg): 10.3 mL/min/kg
Vd/F ([7]; 16 umol/kg): 4.22 ± 0.86 L/kg
half-life ([7]; 16 umol/kg): 4.68 ± 0.52 h
hot plate latency [8]: 54.2 ± 4.8 s
hot plate latency ([8]; sc): 9.5 ± 0.8 s
% TTR occupancy in human serum ([9]; FPE probe 3.6 µM, 3 h reading relative to probe alone, text mean ± s.d., table replicates): 66.15% and 66.78% and 69.04% and 66.00%
%FPE probe fluorescence ([9]; time 0.000 h): 0.000%
%FPE probe fluorescence ([9]; time 0.083 h): 0.549% and 0.762% and -1.844% and -1.645%
%FPE probe fluorescence ([9]; time 0.250 h): 0.706% and 1.255% and -0.116% and -0.642%
%FPE probe fluorescence ([9]; time 0.500 h): 2.826% and 3.272% and 3.466% and 3.115%
%FPE probe fluorescence ([9]; time 1.000 h): 4.537% and 7.078% and 8.406% and 7.892%
%FPE probe fluorescence ([9]; time 1.250 h): 9.016% and 10.868% and 10.718% and 11.974%
%FPE probe fluorescence ([9]; time 1.500 h): 11.997% and 15.126% and 11.024% and 13.206%
%FPE probe fluorescence ([9]; time 1.750 h): 15.076% and 17.659% and 14.693% and 18.815%
%FPE probe fluorescence ([9]; time 2.000 h): 19.358% and 21.045% and 18.427% and 21.877%
%FPE probe fluorescence ([9]; time 2.250 h): 25.163% and 23.487% and 22.045% and 24.539%
%FPE probe fluorescence ([9]; time 2.500 h): 25.806% and 27.529% and 26.249% and 27.302%
%FPE probe fluorescence ([9]; time 2.750 h): 30.929% and 30.377% and 27.371% and 30.854%
%FPE probe fluorescence ([9]; time 3.000 h): 33.853% and 33.219% and 30.957% and 33.996%
%FPE probe fluorescence ([9]; time 3.500 h): 39.372% and 39.356% and 37.472% and 40.606%
%FPE probe fluorescence ([9]; time 3.750 h): 41.871% and 41.320% and 39.536% and 41.800%
%FPE probe fluorescence ([9]; time 4.000 h): 43.406% and 44.388% and 42.775% and 45.047%
%FPE probe fluorescence ([9]; time 4.250 h): 46.096% and 46.093% and 44.165% and 46.692%
%FPE probe fluorescence ([9]; time 4.500 h): 48.403% and 48.011% and 46.251% and 48.352%
%FPE probe fluorescence ([9]; time 4.750 h): 49.977% and 52.633% and 49.006% and 51.062%
%FPE probe fluorescence ([9]; time 5.000 h): 52.730% and 52.156% and 49.883% and 52.401%
%FPE probe fluorescence ([9]; time 5.250 h): 54.499% and 55.931% and 51.647% and 54.573%
%FPE probe fluorescence ([9]; time 5.500 h): 56.002% and 55.963% and 54.625% and 55.846%
%FPE probe fluorescence ([9]; time 5.750 h): 57.400% and 57.044% and 54.205% and 59.081%
%FPE probe fluorescence ([9]; time 6.000 h): 57.353% and 57.260% and 55.092% and 59.796%
% Fluorescence polarization (mean) ([10]; log [nM] inhibitor 0.990): 100.000%
% Fluorescence polarization (mean) ([10]; log [nM] inhibitor 1.291): 102.820%
% Fluorescence polarization (mean) ([10]; log [nM] inhibitor 1.592): 102.360%
% Fluorescence polarization (mean) ([10]; log [nM] inhibitor 1.893): 99.420%
% Fluorescence polarization (mean) ([10]; log [nM] inhibitor 2.194): 100.060%
% Fluorescence polarization (mean) ([10]; log [nM] inhibitor 2.495): 94.250%
% Fluorescence polarization (mean) ([10]; log [nM] inhibitor 2.796): 77.990%
% Fluorescence polarization (mean) ([10]; log [nM] inhibitor 3.097): 63.730%
% Fluorescence polarization (mean) ([10]; log [nM] inhibitor 3.398): 48.160%
% Fluorescence polarization (mean) ([10]; log [nM] inhibitor 3.699): 35.010%
% Fluorescence polarization (mean) ([10]; log [nM] inhibitor 4.000): 21.890%
% Fluorescence polarization (mean) ([10]; log [nM] inhibitor […]): 0.000%
Kp ([11]; percentage CSF to plasma ratio): 0
Kp ([11]; percentage brain to plasma ratio): 0

NC(Cc1cc(I)c(Oc2cc(I)c(O)c(I)c2)c(I)c1)C(=O)O (centres unmarked) [Thyroxine]
%holo RBP binding to TTR [1]: 7.1% and 6.9% and 6%
